What was measured:
[1] = for Stabilization of chlorine dioxide (in words): excipients of Table 1 in brimonidine composition; for Stabilized Chlorine Dioxide Concentration, 0 Days / Stabilized Chlorine Dioxide Concentration, 7 Days / Stabilized Chlorine Dioxide Concentration, 14 Days: ingredient added at stated ppm to proprietary brimonidine composition
[2] = Effect of citrate on bimatoprost and Purite stability in the composition of Table 4 at 50° C.; assay type: physicochemical; settings: compositions D (citric acid 0.014%) vs E, 50° C., 3, 6 and 10 weeks, FIGS. 1 and 2
Experimental: Compositions D and E were prepared according to Table 4 by a procedure similar to that described in Example 2. […] The samples were stored at 50° C. and the concentrations of bimatoprost (FIG. 1) and Purite® (FIG. 2) were determined at 3, 6 and 10 weeks.

[3] = assay type: physicochemical
Experimental: A composition, prepared according to Table 5, was entirely manufactured in a single batch vessel and was prepared as follows. The ingredients are added into purified water with mixing in the following order: sodium phosphate dibasic heptahydrate, citric acid monohydrate, sodium chloride, bimatoprost, and Purite®. Each ingredient was allowed to dissolve completely before the next ingredient was added. The pH was then measured and adjusted to 7.3, and purified water was added to bring the composition to final volume.

Effect of citrate on bimatoprost and Purite stability (in words) [2]	Storage stability for bimatoprost and Purite (in words) [3]	SMILES	Stabilization of chlorine dioxide (in words) [1]	Stabilized Chlorine Dioxide Concentration, 0 Days [1] [ppm]	Stabilized Chlorine Dioxide Concentration, 7 Days [1] [ppm]	Stabilized Chlorine Dioxide Concentration, 14 Days [1] [ppm]
–	–	O=C(O)CN(CCN(CC(=O)O)CC(=O)O)CC(=O)O [EDTA]	do not stabilize	44	2	0
–	–	NCCN [Ethylene diamine]	do not stabilize	–	–	–
–	–	O=C([O-])/C(O)=C(\O)C(=O)[O-].[Na+].[Na+] [Sodium Dihydroxyfurmarate]	–	37	13	0
–	–	O=C[O-].[Na+] [Sodium Formate]	–	42	40	36
–	–	CC(O)C(=O)[O-].[Na+] (stereo not drawn) [Sodium Lactate]	–	45	40	37
–	–	O=C([O-])C(=O)[O-].[Na+].[Na+] [Sodium Oxalate]	ineffective	39	38	35
–	–	CC(=O)C(=O)[O-].[Na+] [Sodium Pyruvate]	ineffective	–	–	–
stabilizes both bimatoprost and Purite®	excellent storage stability	O=C(O)CC(O)(CC(=O)O)C(=O)O [citrate, citric acid]	–	–	–	–

— patent US20150283240A1, “STABILIZED COMPOSITIONS COMPRISING A […] ACTIVE AGENT AND AN OXIDIZING PRESERVATIVE” (Allergan, Inc., priority 2014, published 2015)
